{"source": "patent US10202579B2", "about": "“Methods for producing mammalian pluripotent stem cell-derived endodermal cells” (Takara Bio Europe AB, priority 2012, dated 2019)", "system": "hPSC lines P11032, SA181 and P11012", "experiment": "DE differentiation of 3 hPSC lines with 5-aza-2-deoxycytidine or 5-azacytidine, qRT-PCR marker expression (Example 5)", "assay_type": "cell-based, human", "conditions": "1 μM on day 2-3", "method": "Following the basic protocols A (hPSC lines P11032, and SA181) or B (hPSC line P11012), cells derived from 3 different hPSC lines were treated with either 10 nM 5-aza-2-deoxycytidine or 1 μM 5-azacytidine on day 2-3 during the hPS differentiation into definitive endodem.\nFor analysis of mRNA expression, hESC- and hiPSC-derived DE-cells were harvested on day 7 of the protocol and gene expression was analysed using qRT-PCR, normalised to the house-keeping gene CREBBP, and the results presented as relative quantification normalised to a calibrator."}
{"smiles": "Nc1ncn([C@@H]2O[C@H](CO)[C@@H](O)[C@H]2O)c(=O)n1", "note": "[5-azacytidine]", "values": [{"measurement": "mRNA expression of the DE marker Cxcr4", "setting": "day 7", "result": "No significant changes"}, {"measurement": "mRNA expression of the DE marker Sox17", "setting": "day 7", "result": "No significant changes"}, {"measurement": "Nanog mRNA", "setting": "day 7, vs without treatment", "result": "significantly decreased"}, {"measurement": "Oct4 mRNA", "setting": "day 7, vs without treatment", "result": "significantly decreased"}, {"measurement": "Homogeneity of derived DE population", "setting": "lines give heterogeneous DE if untreated", "result": "allowed derivation of a homogeneous DE population"}]}
